Measurements taken from ChEMBL document CHEMBL1201862, “PubChem BioAssay data set” (2004).
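Tested at 5 concentrations; 48 h exposure; 96-well plates; endpoints linearly interpolated, else capped at highest concentration. Abbreviation: GI50, concentration required for 50% inhibition of growth.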 The source made the active and inactive calls. No stated cut-off is given here; in the data, active = GI50 up to about 1.1 µM and inactive = higher.

Experiments:
Assay in all cases: NCI tumour cell line growth inhibition, 48 h
[1] = test system: A498
[2] = test system: A549
[3] = test system: ACHN
[4] = test system: CAKI-1
[5] = test system: CCRF-CEM
[6] = test system: COLO 205
[7] = test system: DLD-1
[8] = test system: DMS-273
[9] = test system: EKVX
[10] = test system: HCC 2998
[11] = test system: HCT-116
[12] = test system: HCT-15
[13] = test system: HL-60
[14] = test system: HOP-18
[15] = test system: HOP-62
[16] = test system: HOP-92
[17] = test system: HT-29
[18] = test system: IGROV-1
[19] = test system: K562
[20] = test system: KM-20L2
[21] = test system: KM12
[22] = test system: LOX IMVI
[23] = test system: LXFL 529
[24] = test system: M14
[25] = test system: M19-MEL
[26] = test system: MOLT-4
[27] = test system: Malme-3M
[28] = test system: NCI-H226
[29] = test system: NCI-H23
[30] = test system: NCI-H460
[31] = test system: NCI-H522
[32] = test system: OVCAR-3
[33] = test system: OVCAR-4
[34] = test system: OVCAR-5
[35] = test system: OVCAR-8
[36] = test system: RPMI-8226
[37] = test system: RXF 393
[38] = test system: RXF 631
[39] = test system: SF-268
[40] = test system: SF-295
[41] = test system: SF-539
[42] = test system: SK-MEL-28
[43] = test system: SK-MEL-2
[44] = test system: SK-MEL-5
[45] = test system: SK-OV-3
[46] = test system: SN12C
[47] = test system: SNB-19
[48] = test system: SNB-75
[49] = test system: SNB-78
[50] = test system: SR
[51] = test system: SW-620
[52] = test system: TK-10
[53] = test system: U-251
[54] = test system: UACC-257
[55] = test system: UACC-62
[56] = test system: UO-31
[57] = test system: XF498
[58] = test system: 786-0
[59] = test system: DMS-114

With `O=C(CC1Sc2ccccc2NC1=O)Nc1ccccc1[N+](=O)[O-]` (stereo not given) the GI50 [1] was > 100 µM (inactive), the GI50 [2] was > 100 µM (inactive) and the GI50 [3] was > 100 µM (inactive). The GI50 [4] was > 100 µM (inactive), the GI50 [5] was > 100 µM (inactive) and the GI50 [6] was > 100 µM (inactive). The GI50 [7] was > 100 µM (inactive), the GI50 [8] was > 100 µM (inactive) and the GI50 [9] was > 100 µM (inactive). The GI50 [10] was > 100 µM (inactive), the GI50 [11] was > 100 µM (inactive) and the GI50 [12] was greater than 100 µM. For the same molecule, the GI50 [13] was > 100 µM (inactive), the GI50 [14] was > 100 µM (inactive) and the GI50 [15] was > 100 µM (inactive). The GI50 [16] was > 100 µM (inactive), the GI50 [17] was > 100 µM (inactive) and the GI50 [18] was > 100 µM (inactive). The GI50 [19] was > 100 µM (inactive), the GI50 [20] was > 100 µM (inactive) and the GI50 [21] was > 100 µM (inactive). The GI50 [22] was > 100 µM (inactive), the GI50 [23] was > 100 µM (inactive) and the GI50 [24] was > 100 µM (inactive). For the same molecule, the GI50 [25] was > 100 µM (inactive), the GI50 [26] was 4.33 µM (inactive) and the GI50 [27] was > 100 µM (inactive). The GI50 [28] was > 100 µM (inactive), the GI50 [29] was > 100 µM (inactive) and the GI50 [30] was > 100 µM (inactive). The GI50 [31] was 17.1 µM (inactive), the GI50 [32] was > 100 µM (inactive) and the GI50 [33] was > 100 µM (inactive). For the same molecule, the GI50 [34] was > 100 µM (inactive), the GI50 [35] was > 100 µM (inactive) and the GI50 [36] was > 100 µM (inactive). For the same molecule, the GI50 [37] was > 100 µM (inactive), the GI50 [38] was > 100 µM (inactive) and the GI50 [39] was > 100 µM (inactive). The GI50 [40] was > 100 µM (inactive), the GI50 [41] was > 100 µM (inactive) and the GI50 [42] was > 100 µM (inactive). The GI50 [43] was > 100 µM (inactive), the GI50 [44] was > 100 µM (inactive) and the GI50 [45] was > 100 µM (inactive). For the same molecule, the GI50 [46] was > 100 µM (inactive), the GI50 [47] was > 100 µM (inactive) and the GI50 [48] was > 100 µM (inactive). For the same molecule, the GI50 [49] was > 100 µM (inactive), the GI50 [50] was 12.2 µM (inactive) and the GI50 [51] was > 100 µM (inactive). The GI50 [52] was > 100 µM (inactive), the GI50 [53] was > 100 µM (inactive) and the GI50 [54] was > 100 µM (inactive). The GI50 [55] was > 100 µM (inactive), the GI50 [56] was > 100 µM (inactive) and the GI50 [57] was > 100 µM (inactive).
`N#CC1=C(c2ccccc2)OC2(N)OC(c3ccccc3)=C(C#N)C12C#N` (stereo not given) was tested, and the GI50 [58] was > 100 µM (inactive), the GI50 [1] was > 100 µM (inactive) and the GI50 [2] was > 100 µM (inactive). The GI50 [3] was > 100 µM (inactive), the GI50 [4] was 84.1 µM (inactive) and the GI50 [5] was 56.1 µM (inactive). For the same molecule, the GI50 [6] was > 100 µM (inactive), the GI50 [7] was > 100 µM (inactive) and the GI50 [59] was 51.5 µM (inactive). For the same molecule, the GI50 [8] was > 100 µM (inactive), the GI50 [9] was > 100 µM (inactive) and the GI50 [10] was > 100 µM (inactive). For the same molecule, the GI50 [12] was greater than 100 µM, the GI50 [14] was 21.6 µM (inactive) and the GI50 [15] was > 100 µM (inactive). For the same molecule, the GI50 [17] was > 100 µM (inactive), the GI50 [18] was > 100 µM (inactive) and the GI50 [19] was > 100 µM (inactive). The GI50 [20] was > 100 µM (inactive), the GI50 [21] was > 100 µM (inactive) and the GI50 [22] was > 100 µM (inactive). The GI50 [23] was 74 µM (inactive), the GI50 [24] was > 100 µM (inactive) and the GI50 [25] was > 100 µM (inactive). The GI50 [26] was > 100 µM (inactive), the GI50 [27] was > 100 µM (inactive) and the GI50 [29] was > 100 µM (inactive). For the same molecule, the GI50 [30] was > 100 µM (inactive), the GI50 [32] was 36.9 µM (inactive) and the GI50 [33] was 60.3 µM (inactive). For the same molecule, the GI50 [34] was > 100 µM (inactive), the GI50 [35] was 74.8 µM (inactive) and the GI50 [36] was 39.4 µM (inactive). The GI50 [37] was 69.3 µM (inactive), the GI50 [38] was > 100 µM (inactive) and the GI50 [39] was > 100 µM (inactive). For the same molecule, the GI50 [40] was > 100 µM (inactive), the GI50 [41] was > 100 µM (inactive) and the GI50 [42] was > 100 µM (inactive). The GI50 [43] was > 100 µM (inactive), the GI50 [44] was > 100 µM (inactive) and the GI50 [45] was > 100 µM (inactive). The GI50 [46] was > 100 µM (inactive), the GI50 [47] was > 100 µM (inactive) and the GI50 [48] was 43.6 µM (inactive). For the same molecule, the GI50 [49] was > 100 µM (inactive), the GI50 [51] was > 100 µM (inactive) and the GI50 [52] was > 100 µM (inactive). For the same molecule, the GI50 [53] was > 100 µM (inactive), the GI50 [54] was > 100 µM (inactive) and the GI50 [55] was > 100 µM (inactive). For the same molecule, the GI50 [56] was 31.5 µM (inactive) and the GI50 [57] was > 100 µM (inactive).
